Laboratory results published in patent US8853246B2 (Dow AgroSciences LLC, priority 2009, dated 2014).
Read-outs that look alike come from different tables or passages of the source.

Tests used:
[1] = system: Green Peach Aphid (Myzus Persicae); assay: Insecticidal test for green peach aphid in foliar spray assay (col. MYZUPE); format: in vivo; conditions: for pest or weed control at 200 ppm: Myzus persicae, 72 h, read-out: MYZUPE 200 ppm (Corrected % Control, rating)
How it was run: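 Corrected % control derives from microscope counts of live aphids per plant, treated against diluent-only checks, 3 days after foliar spraying at ~25 °C and 40% RH. Test solution was 200 ppm in 0.025% aqueous Tween 20, applied to both leaf sides of infested cabbage seedlings, four pots each.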

[2] = system: Sweetpotato Whitefly-Crawler (Bemisia Tabaci); assay: Insecticidal test for sweetpotato whitefly-crawler in foliar spray assay (col. BEMITA); format: in vivo; conditions: for pest or weed control at 200 ppm: Bemisia tabaci, read-out: BEMITA 200 ppm (Corrected % Control, rating)
How it was run: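 Percent control, Abbott-corrected against diluent-sprayed plants, from microscope counts of live nymphs 8-9 days after treatment. Test solution at 200 ppm in 0.025% aqueous Tween 20 applied to both leaf sides of egg-infested cotton after a 5-6 day hatch period (82° F, 50% RH).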

| Compound | pest or weed control at 200 ppm ([1]; green peach aphid) [%] | pest or weed control at 200 ppm ([2]; sweetpotato whitefly-crawler) [%] | also measured |
| --- | --- | --- | --- |
| CN(C(=O)C(C)(C)C)c1cnc(-c2cncc(F)c2)s1 [Compound 33] | < 80 | 80 to 100 | melting point: 153 to 155 °C |
| CSC(C)(C)CC(=O)Nc1sc(-c2cccnc2)nc1Cl [Compound 488] | – | – | pest or weed control at 200 ppm ([1]; Abbott's correction formula): 80 to 100%; pest or weed control at 200 ppm ([2]; Abbott's correction formula): 80 to 100%; melting point: 113 to 115 °C |
| Cc1nc(-c2cccnc2)sc1N(C)C(=S)NC(C)C [Compound 386] | 80 to 100 | 80 to 100 | melting point: 163 to 164 °C |
| Cc1nc(-c2cncc(F)c2)sc1N(C)C(=O)C(C)CS(C)(=O)=O (stereo not shown) [Compound 98] | 80 to 100 | 80 to 100 | melting point: 105 to 109 °C |
| CN(C(=O)OC(C)(C)C)c1sc(-c2cncc(F)c2)nc1F [Compound 366] | 80 to 100 | 80 to 100 | melting point: 81 to 84 °C |
| COc1ncc(-c2nc(Cl)c(N(C)C(=O)CCSC)s2)cc1F [Compound 551] | – | – | pest or weed control at 200 ppm ([1]; Abbott's correction formula): < 80%; pest or weed control at 200 ppm ([2]; Abbott's correction formula): < 80%; melting point: 92 to 94 °C |
| CS[C@H]1CC1C(=O)N(C)c1sc(-c2cncc(F)c2)nc1C (stereo partly shown) [Compound 216] | 80 to 100 | 80 to 100 | melting point: 88 to 90 °C |
| CCN(C(=O)OC(C)(C)C)c1cnc(-c2cccnc2)s1 [Compound 477] | – | – | melting point: 65 to 67 °C |
| CN(C(=O)OCC[S+](C)[O-])c1cnc(-c2cncc(F)c2)s1 (stereo not shown) [Compound 84] | 80 to 100 | – | melting point: 153 to 155 °C |
| Cc1nc(-c2ccc(F)nc2)sc1NC(=O)C(C)C [Compound 71] | 80 to 100 | – | melting point: 182 to 186 °C |
| Cc1nc(-c2cccnc2)sc1NC(=O)OC(C)(C)C [Compound 9, (4-Methyl-2-pyridin-3-yl-thiazol-5-yl)-carbamic acid tert-butyl ester] | 80 to 100 | 80 to 100 | – |
| Cc1nc(-c2cccnc2)sc1N(C)C(=O)CC[S+](C)[O-] (stereo not shown) [Compound 90] | 80 to 100 | 80 to 100 | – |
| CCN(C(=O)C(C)C)c1sc(-c2cccnc2)nc1Br [Compound 457] | – | – | pest or weed control at 200 ppm ([1]; Abbott's correction formula): 80 to 100%; pest or weed control at 200 ppm ([2]; Abbott's correction formula): 80 to 100% |
| CN(C(=O)CCS(C)(=O)=O)c1sc(-c2cccnc2)nc1Br [Compound 507] | – | – | pest or weed control at 200 ppm ([1]; Abbott's correction formula): 80 to 100%; pest or weed control at 200 ppm ([2]; Abbott's correction formula): 80 to 100% |
| CCN(C(=O)OC(C)(C)C)c1sc(-c2cccnc2)nc1C [Compound 12, Ethyl-(4-methyl-2-pyridin-3-yl-thiazol-5-yl)-carbamic acid tert-butyl ester] | 80 to 100 | 80 to 100 | – |
| Cc1nc(-c2cccnc2)sc1N(C)C(=O)C(CCCCNC(=O)OCc1ccccc1)NC(=O)OC(C)(C)C (stereo not shown) [Compound 291] | < 80 | < 80 | – |
| CN(C(=O)CC[S+](C)[O-])c1sc(-c2cncc(Cl)c2)nc1Cl (stereo not shown) [Compound 501] | – | – | pest or weed control at 200 ppm ([1]; Abbott's correction formula): 80 to 100%; pest or weed control at 200 ppm ([2]; Abbott's correction formula): 80 to 100% |
| CSCC(C)C(=O)N(C(=O)C(C)(C)CSC)c1sc(-c2cccnc2)nc1C (stereo not shown) [Compound 195] | 80 to 100 | 80 to 100 | – |
| CN(C(=O)CN(C)S(=O)(=O)/C=C/c1ccccc1)c1sc(-c2cccnc2)nc1Cl [Compound 437] | – | – | pest or weed control at 200 ppm ([1]; Abbott's correction formula): < 80%; pest or weed control at 200 ppm ([2]; Abbott's correction formula): < 80% |
| CSCC(C)C(=O)Nc1sc(-c2cncc(F)c2)nc1Br (stereo not shown) [Compound 299] | 80 to 100 | 80 to 100 | – |
| CSCc1ccc(C(=O)N(C)c2sc(-c3cccnc3)nc2Cl)o1 [Compound 409] | – | – | MYZUPE 200 ppm (Corrected % Control, rating) ([1]; green peach aphid): A (80-100); BEMITA 200 ppm (Corrected % Control, rating) ([2]; sweetpotato whitefly-crawler): A (80-100) |
| C=Cc1nc(-c2cncc(F)c2)sc1N(C)C(=O)OC(C)(C)C [Compound 363, [2-(5-fluoro-pyridin-3-yl)-4-vinyl-thiazol-5-yl]-methyl-carbamic acid-tert-butyl ester] | < 80 | 80 to 100 | – |
| CSCC(C)C(=O)N(C(=O)C(C)CSC)c1sc(-c2cccnc2)nc1C (stereo not shown) [Compound 173] | 80 to 100 | 80 to 100 | – |
| Cc1nc(-c2cccnc2)sc1N(C)C(=O)C(NC(=O)OC(C)(C)C)C(C)OCc1ccccc1 (stereo not shown) [Compound 293] | 80 to 100 | < 80 | – |

| Compound | pest or weed control at 200 ppm ([1]; green peach aphid) [%] | pest or weed control at 200 ppm ([2]; sweetpotato whitefly-crawler) [%] | also measured |
| --- | --- | --- | --- |
| CSCC(Cc1ccccc1)C(=O)Nc1sc(-c2cccnc2)nc1C (stereo not shown) [Compound 329] | < 80 | < 80 | – |
| COCC(C)OC(=O)N(C)c1sc(-c2cccnc2)nc1C (stereo not shown) [Compound 484] | – | – | pest or weed control at 200 ppm ([1]; Abbott's correction formula): < 80%; pest or weed control at 200 ppm ([2]; Abbott's correction formula): 80 to 100% |
| Cc1nc(-c2cccnc2)sc1N(CCS(C)(=O)=O)C(=O)OC(C)(C)C [Compound 568] | – | – | pest or weed control at 200 ppm ([1]; Abbott's correction formula): < 80%; pest or weed control at 200 ppm ([2]; Abbott's correction formula): < 80% |
| CC(C)C(=O)N(C)c1sc(-c2cccnc2)nc1Cl [Compound 231] | 80 to 100 | 80 to 100 | – |
| CNC(C)C(=O)N(C)c1sc(-c2cccnc2)nc1C (stereo not shown) [Compound 295] | < 80 | 80 to 100 | – |
| CCN(C(=O)C(C)(C)C[S+](C)[O-])c1sc(-c2cncc(F)c2)nc1C (stereo not shown) [Compound 260] | 80 to 100 | 80 to 100 | – |
| CCN(C(=O)OC(C)(C)C)c1sc(-c2cncc(F)c2)nc1F [Compound 423] | < 80 | 80 to 100 | – |
| CCOC(=O)c1cncc(-c2nc(C)c(NC(=O)C(C)CSC)s2)c1 (stereo not shown) [Compound 170] | < 80 | < 80 | – |
| Cc1nc(-c2cccnc2)sc1N(C)C(=O)C(C)N(C)C(=O)OC(C)(C)C (stereo not shown) [Compound 294] | < 80 | < 80 | – |
| Cc1nc(-c2cncc(F)c2)sc1N(C)C(=O)C(C)CS(=O)(Cc1ccc(Cl)nc1)=NC#N (stereo not shown) [Compound 167] | < 80 | 80 to 100 | – |
| Cc1nc(-c2ccc(F)nc2)sc1N(C(=O)C(C)C)C(=O)C(C)C [Compound 162] | 80 to 100 | 80 to 100 | – |
| CC(C)C(=O)N1CCCC(C(=O)N(C)c2sc(-c3cccnc3)nc2Cl)C1 (stereo not shown) [Compound 411] | 80 to 100 | 80 to 100 | – |
| CN(C(=O)CC[S+](C)[O-])c1sc(-c2cccnc2)nc1Cl (stereo not shown) [Compound 174] | 80 to 100 | 80 to 100 | – |
| Cc1nc(-c2cccnc2)sc1N(C)C(=O)C(CC(C)C)NC(=O)OC(C)(C)C (stereo not shown) [Compound 283] | < 80 | < 80 | – |
| CCN(C(=O)CC[S+](C)[O-])c1sc(-c2cncc(F)c2)nc1F (stereo not shown) [Compound 427] | – | – | pest or weed control at 200 ppm ([1]; Abbott's correction formula): 80 to 100%; pest or weed control at 200 ppm ([2]; Abbott's correction formula): 80 to 100% |
| CSCC(C)C(=O)N(C(=O)C(C)C)c1sc(-c2cccnc2)nc1C (stereo not shown) [Compound 183] | 80 to 100 | 80 to 100 | – |
| CN(C(=O)c1ccoc1)c1sc(-c2cccnc2)nc1Cl [Compound 401] | – | – | MYZUPE 200 ppm (Corrected % Control, rating) ([1]; green peach aphid): A (80-100); BEMITA 200 ppm (Corrected % Control, rating) ([2]; sweetpotato whitefly-crawler): A (80-100) |
| CSC(C)C(C)C(=O)N(C)c1sc(-c2cncc(F)c2)nc1Cl (stereo not shown) [Compound 444] | – | – | pest or weed control at 200 ppm ([1]; Abbott's correction formula): 80 to 100%; pest or weed control at 200 ppm ([2]; Abbott's correction formula): 80 to 100% |
| CCN(C(=O)CCSCc1ccccc1)c1sc(-c2cccnc2)nc1C [Compound 320] | 80 to 100 | < 80 | – |
| Cc1nc(-c2cccnc2)sc1N(C)C(=O)CN(C)S(=O)(=O)/C=C/c1ccccc1 [Compound 436] | – | – | pest or weed control at 200 ppm ([1]; Abbott's correction formula): < 80%; pest or weed control at 200 ppm ([2]; Abbott's correction formula): < 80% |
| Cc1nc(-c2cncc(F)c2)sc1N(C)C(=O)C1CCSC1 (stereo not shown) [Compound 214] | 80 to 100 | 80 to 100 | – |
| CSCCC(=O)N(C)c1sc(-c2cncc(Cl)c2)nc1Cl [Compound 500] | – | – | pest or weed control at 200 ppm ([1]; Abbott's correction formula): 80 to 100%; pest or weed control at 200 ppm ([2]; Abbott's correction formula): 80 to 100% |
| CSC(C)CC(=O)N(C)c1sc(-c2cccnc2)nc1Br (stereo not shown) [Compound 499] | – | – | pest or weed control at 200 ppm ([1]; Abbott's correction formula): 80 to 100%; pest or weed control at 200 ppm ([2]; Abbott's correction formula): < 80% |
